Assay results taken from patent US20260022143A1, “Cyclic Peptide Inhibitors of IL-23” (JANSSEN PHARMACEUTICA NV, priority 2022, published 2026).
Starred links: 1 amine or outer side, 2 acyl side, 3 side chain; linkers in the order of their positions; H or OH if unused. Positions of bridges follow the written chain, without caps; N, C: chain ends. Non-standard residues stand in square brackets, D forms with d. Residues, ends and D or L forms follow the SMILES beside them. *: point of attachment. Trp(7-(3-AcNH-Ph)) = CC(=O)Nc1cccc(-c2cccc3c(C[C@H](N)C(=O)O)c[nH]c23)c1; X36 = C[N+]1(CCCc2cn(-c3ccc(C[C@H](N[*:1])C(=O)[*:2])cc3)nn2)CCOCC1; X27 = C[N+](C)(C)CCc1cn(-c2ccc(C[C@H](N[*:1])C(=O)[*:2])cc2)nn1; X16 = C[N+](C)(C)Cc1cn(-c2ccc(C[C@H](N[*:1])C(=O)[*:2])cc2)nn1; Me3N+(CH2)2O(CH2)2O(CH2)2CO = C[N+](C)(C)CCOCCOCCC(=O)*; Trp(7-Me) = Cc1cccc2c(C[C@H](N)C(=O)O)c[nH]c12; dLys(Me3) = C[N+](C)(C)CCCC[C@@H](N)C(=O)O; 2Nal = N[C@@H](Cc1ccc2ccccc2c1)C(=O)O; AEF = NCCOc1ccc(C[C@H](N)C(=O)O)cc1; X22 = CN1CC[N+](C)(CCOCCOCC*)CC1; 3Pal = N[C@@H](Cc1cccnc1)C(=O)O; Pen = CC(C)(S)[C@H](N)C(=O)O; Thp = NC1(C(=O)O)CCOCC1; X17 = C[N+]1(CC*)CCOCC1; X3 = C[N+](C)(C)CCCCC*; Sar = CNCC(=O)O

Experiments:
IL-23R = molecular target: T1, IL-23R (Homo sapiens, UniProt Q5VWK5); assay: IL23R Reporter Assay; assay type: cell-based; details: HEK293 cells containing IL-23R, IL-12RP1 and STAT-inducible firefly luciferase reporter; 10 ng/mL IL-23 (EC90); 5 h at 37° C.; read-out: IL23R Reporter Assay
T1 construct: host or cells: HEK293
T1 sequence (Q5VWK5 24-629): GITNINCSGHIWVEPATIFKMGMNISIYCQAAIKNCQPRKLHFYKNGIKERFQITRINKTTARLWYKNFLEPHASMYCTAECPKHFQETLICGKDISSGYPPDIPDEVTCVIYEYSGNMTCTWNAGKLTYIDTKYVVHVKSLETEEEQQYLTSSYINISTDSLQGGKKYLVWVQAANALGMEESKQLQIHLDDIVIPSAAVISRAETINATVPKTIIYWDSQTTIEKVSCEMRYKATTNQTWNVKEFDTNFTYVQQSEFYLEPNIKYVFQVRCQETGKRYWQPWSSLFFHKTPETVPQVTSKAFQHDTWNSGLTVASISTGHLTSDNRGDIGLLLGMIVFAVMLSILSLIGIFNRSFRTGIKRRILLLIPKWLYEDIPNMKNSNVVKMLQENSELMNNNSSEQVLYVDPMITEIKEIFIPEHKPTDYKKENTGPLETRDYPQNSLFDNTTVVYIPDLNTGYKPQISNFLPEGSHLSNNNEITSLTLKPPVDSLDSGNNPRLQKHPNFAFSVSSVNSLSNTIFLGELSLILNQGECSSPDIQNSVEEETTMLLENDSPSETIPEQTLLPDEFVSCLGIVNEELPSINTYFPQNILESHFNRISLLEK

[1] = Exposed Polar Surface Area (EPSA); assay type: physicochemical; details: SFC on Chirex 3014 column; sample 1 mM DMSO stock; read-out: EPSA
Method in brief: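 Compounds, as 1 mM DMSO stock, were injected in duplicate onto an SFC Chirex 3014 column at 35 °C and eluted with a CO2/methanol (20 mM ammonium formate) gradient. EPSA values in Å^2 were derived from retention times using a linear fit to eight calibration standards, reinjected every 20 compounds.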

IC50 (IL-23R) [nM]	EPSA [1] [A^2]	Compound
3.5	161	CC(=O)NCCCC[C@@H]1NC(=O)[C@H](Cc2c[nH]c3c(C)cccc23)NC(=O)[C@H]([C@@H](C)O)NC(=O)[C@H](CC(N)=O)NC(=O)[C@@H](NC(=O)CCOCCOCC[N+](C)(C)C)C(C)(C)SSC(C)(C)[C@@H](C(=O)N[C@@H](Cc2ccc(OCCCCC[N+](C)(C)C)cc2)C(=O)N[C@@H](Cc2ccc3ccccc3c2)C(=O)NC2(C(=O)N[C@@H](CCCCNC(C)=O)C(=O)N[C@@H](CC(N)=O)C(=O)N[C@@H](Cc3cccnc3)C(=O)N(C)CC(N)=O)CCOCC2)NC1=O [compound 428, cPEG3aCO-Pen(3)-N-T-7MeW-K(Ac)-Pen(3)-TMAPF-2Nal-THP-K(Ac)-N-3Pya-Sar-CONH2] ({Me3N+(CH2)2O(CH2)2O(CH2)2CO}-[Pen]NT[Trp(7-Me)]K(Ac)[Pen]Y(X3)[2Nal][Thp]K(Ac)N[3Pal][Sar]-NH2; disulfide 1-6)
2.6	167	CC(=O)NCCCC[C@@H]1NC(=O)[C@H](Cc2c[nH]c3c(C)cccc23)NC(=O)[C@H]([C@@H](C)O)NC(=O)[C@H](CC(N)=O)NC(=O)[C@@H](NC(C)=O)C(C)(C)SSC(C)(C)[C@@H](C(=O)N[C@@H](Cc2ccc(OCCCCC[N+](C)(C)C)cc2)C(=O)N[C@@H](Cc2ccc3ccccc3c2)C(=O)NC2(C(=O)N[C@@H](CCC(=O)O)C(=O)N[C@@H](CC(N)=O)C(=O)N[C@@H](Cc3cccnc3)C(=O)N(C)CC(N)=O)CCOCC2)NC1=O [compound 430, MeCO-Pen(3)-N-T-7MeW-K(Ac)-Pen(3)-TMAPF-2Nal-THP-E-N-3Pya-Sar-CONH2] (Ac-[Pen]NT[Trp(7-Me)]K(Ac)[Pen]Y(X3)[2Nal][Thp]EN[3Pal][Sar]-NH2; disulfide 1-6 (inferred))
3.1	156	CC(=O)NCCCC[C@@H]1NC(=O)[C@H](Cc2c[nH]c3c(C)cccc23)NC(=O)[C@H]([C@@H](C)O)NC(=O)[C@H](CC(N)=O)NC(=O)[C@@H](NC(C)=O)C(C)(C)SSC(C)(C)[C@@H](C(=O)N[C@@H](Cc2ccc(OCCOCCOCC[N+]3(C)CCN(C)CC3)cc2)C(=O)N[C@@H](Cc2ccc3ccccc3c2)C(=O)NC2(C(=O)N[C@@H](CCCCNC(C)=O)C(=O)N[C@@H](CC(N)=O)C(=O)N[C@@H](Cc3cccnc3)C(=O)N(C)CC(N)=O)CCOCC2)NC1=O [compound 434] (Ac-[Pen]NT[Trp(7-Me)]K(Ac)[Pen]Y(X22)[2Nal][Thp]K(Ac)N[3Pal][Sar]-NH2; disulfide 1-6 (inferred))
1.2	186	CC(=O)NCCCC[C@@H]1NC(=O)[C@H](Cc2c[nH]c3c(C)cccc23)NC(=O)[C@H]([C@@H](C)O)NC(=O)[C@H](CC(N)=O)NC(=O)[C@@H](NC(=O)[C@@H](CCCNC(=N)N)NC(C)=O)C(C)(C)SSC(C)(C)[C@@H](C(=O)N[C@@H](Cc2ccc(OCC[N+]3(C)CCOCC3)cc2)C(=O)N[C@@H](Cc2ccc3ccccc3c2)C(=O)NC2(C(=O)N[C@@H](CCC(=O)O)C(=O)N[C@@H](CC(N)=O)C(=O)N[C@@H](Cc3cccnc3)C(=O)N(C)CC(N)=O)CCOCC2)NC1=O [compound 437] (Ac-[dR][Pen]NT[Trp(7-Me)]K(Ac)[Pen]Y(X17)[2Nal][Thp]EN[3Pal][Sar]-NH2; disulfide 2-7 (inferred))
3.4	167	CC(=O)NCCCC[C@@H]1NC(=O)[C@H](Cc2c[nH]c3c(C)cccc23)NC(=O)[C@H]([C@@H](C)O)NC(=O)[C@H](CC(N)=O)NC(=O)[C@@H](NC(=O)CCOCCOCC[N+](C)(C)C)C(C)(C)SSC(C)(C)[C@@H](C(=O)N[C@@H](Cc2ccc(-n3cc(C[N+](C)(C)C)nn3)cc2)C(=O)N[C@@H](Cc2ccc3ccccc3c2)C(=O)NC2(C(=O)N[C@@H](CCCCNC(C)=O)C(=O)N[C@@H](CC(N)=O)C(=O)N[C@@H](Cc3cccnc3)C(=O)N(C)CC(N)=O)CCOCC2)NC1=O [compound 438, cPEG3aCO-Pen(3)-N-T-7MeW-K(Ac)-Pen(3)-F(4TzlTMA1)-2Nal-THP-K(Ac)-N-3Pya-Sar-CONH2] ({Me3N+(CH2)2O(CH2)2O(CH2)2CO}-[Pen]NT[Trp(7-Me)]K(Ac)[Pen][X16][2Nal][Thp]K(Ac)N[3Pal][Sar]-NH2; disulfide 1-6)
2	163	CC(=O)NCCCC[C@@H]1NC(=O)[C@H](Cc2c[nH]c3c(C)cccc23)NC(=O)[C@H]([C@@H](C)O)NC(=O)[C@H](CC(N)=O)NC(=O)[C@@H](NC(C)=O)C(C)(C)SSC(C)(C)[C@@H](C(=O)N[C@@H](Cc2ccc(-n3cc(CCC[N+]4(C)CCOCC4)nn3)cc2)C(=O)N[C@@H](Cc2ccc3ccccc3c2)C(=O)NC2(C(=O)N[C@@H](CCCCNC(C)=O)C(=O)N[C@@H](CC(N)=O)C(=O)N[C@@H](Cc3cccnc3)C(=O)N(C)CC(N)=O)CCOCC2)NC1=O [compound 440] (Ac-[Pen]NT[Trp(7-Me)]K(Ac)[Pen][X36][2Nal][Thp]K(Ac)N[3Pal][Sar]-NH2; disulfide 1-6 (inferred))
2.1	191	CC(=O)NCCCC[C@@H]1NC(=O)[C@H](Cc2c[nH]c3c(-c4cccc(NC(C)=O)c4)cccc23)NC(=O)[C@H]([C@@H](C)O)NC(=O)[C@H](CC(N)=O)NC(=O)[C@@H](NC(=O)CCOCCOCC[N+](C)(C)C)C(C)(C)SSC(C)(C)[C@@H](C(=O)N[C@@H](Cc2ccc(OCCN)cc2)C(=O)N[C@@H](Cc2ccc3ccccc3c2)C(=O)NC2(C(=O)N[C@@H](CCC(=O)O)C(=O)N[C@@H](CC(N)=O)C(=O)N[C@@H](Cc3cccnc3)C(=O)N(C)CC(N)=O)CCOCC2)NC1=O [compound 443, cPEG3aCO-Pen(3)-N-T-7(3NAcPh)W-K(Ac)-Pen(3)-AEF-2Nal-THP-E-N-3Pya-Sar-CONH2] ({Me3N+(CH2)2O(CH2)2O(CH2)2CO}-[Pen]NT[Trp(7-(3-AcNH-Ph))]K(Ac)[Pen][AEF][2Nal][Thp]EN[3Pal][Sar]-NH2; disulfide 1-6)
2	171	CC(=O)NCCCC[C@@H]1NC(=O)[C@H](Cc2c[nH]c3c(C)cccc23)NC(=O)[C@H]([C@@H](C)O)NC(=O)[C@H](CC(N)=O)NC(=O)[C@@H](NC(=O)[C@@H](CCCC[N+](C)(C)C)NC(C)=O)C(C)(C)SSC(C)(C)[C@@H](C(=O)N[C@@H](Cc2ccc(OCCN)cc2)C(=O)N[C@@H](Cc2ccc3ccccc3c2)C(=O)NC2(C(=O)N[C@@H](CCCCNC(C)=O)C(=O)N[C@@H](CC(N)=O)C(=O)N[C@@H](Cc3cccnc3)C(=O)N(C)CC(N)=O)CCOCC2)NC1=O [compound 447] (Ac-[dLys(Me3)][Pen]NT[Trp(7-Me)]K(Ac)[Pen][AEF][2Nal][Thp]K(Ac)N[3Pal][Sar]-NH2; disulfide 2-7 (inferred))
2	176	CC(=O)NCCCC[C@@H]1NC(=O)[C@H](Cc2c[nH]c3c(-c4cccc(NC(C)=O)c4)cccc23)NC(=O)[C@H]([C@@H](C)O)NC(=O)[C@H](CC(N)=O)NC(=O)[C@@H](NC(=O)[C@@H](CCCC[N+](C)(C)C)NC(C)=O)C(C)(C)SSC(C)(C)[C@@H](C(=O)N[C@@H](Cc2ccc(OCCCCC[N+](C)(C)C)cc2)C(=O)N[C@@H](Cc2ccc3ccccc3c2)C(=O)NC2(C(=O)N[C@@H](CCC(=O)O)C(=O)N[C@@H](CC(N)=O)C(=O)N[C@@H](Cc3cccnc3)C(=O)N(C)CC(N)=O)CCOCC2)NC1=O [compound 448, MeCO-k(Me)3-Pen(3)-N-T-7(3NAcPh)W-K(Ac)-Pen(3)-TMAPF-2Nal-THP-E-N-3Pya-Sar-CONH2] (Ac-[dLys(Me3)][Pen]NT[Trp(7-(3-AcNH-Ph))]K(Ac)[Pen]Y(X3)[2Nal][Thp]EN[3Pal][Sar]-NH2; disulfide 2-7)
1.5	172	CC(=O)NCCCC[C@@H]1NC(=O)[C@H](Cc2c[nH]c3c(-c4cccc(NC(C)=O)c4)cccc23)NC(=O)[C@H]([C@@H](C)O)NC(=O)[C@H](CC(N)=O)NC(=O)[C@@H](NC(C)=O)C(C)(C)SSC(C)(C)[C@@H](C(=O)N[C@@H](Cc2ccc(OCCCCC[N+](C)(C)C)cc2)C(=O)N[C@@H](Cc2ccc3ccccc3c2)C(=O)NC2(C(=O)N[C@@H](CCC(=O)O)C(=O)N[C@@H](CC(N)=O)C(=O)N[C@@H](Cc3cccnc3)C(=O)N(C)CC(N)=O)CCOCC2)NC1=O [compound 451, MeCO-Pen(3)-N-T-7(3NAcPh)W-K(Ac)-Pen(3)-TMAPF-2Nal-THP-E-N-3Pya-Sar-CONH2] (Ac-[Pen]NT[Trp(7-(3-AcNH-Ph))]K(Ac)[Pen]Y(X3)[2Nal][Thp]EN[3Pal][Sar]-NH2; disulfide 1-6)
2.1	176	CC(=O)NCCCC[C@@H]1NC(=O)[C@H](Cc2c[nH]c3c(C)cccc23)NC(=O)[C@H]([C@@H](C)O)NC(=O)[C@H](CC(N)=O)NC(=O)[C@@H](NC(C)=O)C(C)(C)SSC(C)(C)[C@@H](C(=O)N[C@@H](Cc2ccc(-n3cc(CC[N+](C)(C)C)nn3)cc2)C(=O)N[C@@H](Cc2ccc3ccccc3c2)C(=O)NC2(C(=O)N[C@@H](CCC(=O)O)C(=O)N[C@@H](CC(N)=O)C(=O)N[C@@H](Cc3cccnc3)C(=O)N(C)CC(N)=O)CCOCC2)NC1=O [compound 454] (Ac-[Pen]NT[Trp(7-Me)]K(Ac)[Pen][X27][2Nal][Thp]EN[3Pal][Sar]-NH2; disulfide 1-6 (inferred))
